Results reported in US11208412B2 (DAEGU-GYEONGBUK MEDICAL INNOVATION FOUNDATION, priority 2017, dated 2021).

Tests used:
Test in all cases: Kinase selectivity, DiscoverX scanMAX Kinase assay panel (% control)
Assay type in all cases: binding
[1] = biological target: T1, kinases of the scanMAX Kinase assay panel (Homo sapiens, UniProt Q96RR4); settings: CAMKK2; 1 uM
T1 construct: purchased DiscoverX Co. (contract measurement) scanMAX Kinase assay panel
In short: (§1)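 Binding-panel profiling at one concentration, 1 uM in DMSO; values are % of DMSO control after subtracting the positive-control floor. Less than 35% means activity on that kinase.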

[2] = biological target: T2, kinases of the scanMAX Kinase assay panel (Homo sapiens, UniProt Q8TD19); settings: NEK9; 1 uM
T2 construct: purchased DiscoverX Co. (contract measurement) scanMAX Kinase assay panel
T2 sequence (Q8TD19 1-979): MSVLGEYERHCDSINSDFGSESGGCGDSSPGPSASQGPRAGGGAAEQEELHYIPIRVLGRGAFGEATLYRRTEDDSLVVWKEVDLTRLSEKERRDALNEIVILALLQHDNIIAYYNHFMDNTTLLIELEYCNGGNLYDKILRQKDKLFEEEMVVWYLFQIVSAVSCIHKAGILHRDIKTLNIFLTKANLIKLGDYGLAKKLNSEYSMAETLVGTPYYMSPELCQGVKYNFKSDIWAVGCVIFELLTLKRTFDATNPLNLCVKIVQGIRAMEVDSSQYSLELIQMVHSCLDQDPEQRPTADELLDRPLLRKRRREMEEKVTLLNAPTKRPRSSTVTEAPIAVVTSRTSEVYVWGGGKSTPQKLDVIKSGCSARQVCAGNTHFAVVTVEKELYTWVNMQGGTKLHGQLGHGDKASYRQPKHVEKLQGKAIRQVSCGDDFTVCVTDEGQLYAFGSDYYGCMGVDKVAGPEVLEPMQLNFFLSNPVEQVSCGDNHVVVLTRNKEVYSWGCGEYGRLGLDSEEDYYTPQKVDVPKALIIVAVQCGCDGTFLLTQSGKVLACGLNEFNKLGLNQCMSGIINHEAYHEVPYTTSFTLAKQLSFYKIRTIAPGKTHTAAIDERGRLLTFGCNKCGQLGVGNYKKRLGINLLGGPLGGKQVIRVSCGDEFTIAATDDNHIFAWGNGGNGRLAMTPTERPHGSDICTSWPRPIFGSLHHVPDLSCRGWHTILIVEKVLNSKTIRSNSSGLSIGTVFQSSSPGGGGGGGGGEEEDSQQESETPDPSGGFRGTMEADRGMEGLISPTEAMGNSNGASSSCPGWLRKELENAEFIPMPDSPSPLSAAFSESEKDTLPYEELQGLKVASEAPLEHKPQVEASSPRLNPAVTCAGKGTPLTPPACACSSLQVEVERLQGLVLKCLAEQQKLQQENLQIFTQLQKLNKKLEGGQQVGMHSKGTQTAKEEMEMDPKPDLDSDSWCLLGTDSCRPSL
In short: as §1

[3] = biological target: T3, kinases of the scanMAX Kinase assay panel (Homo sapiens, UniProt Q15139); settings: PRKD1; 1 uM
T3 construct: purchased DiscoverX Co. (contract measurement) scanMAX Kinase assay panel
T3 sequence (Q15139 1-912): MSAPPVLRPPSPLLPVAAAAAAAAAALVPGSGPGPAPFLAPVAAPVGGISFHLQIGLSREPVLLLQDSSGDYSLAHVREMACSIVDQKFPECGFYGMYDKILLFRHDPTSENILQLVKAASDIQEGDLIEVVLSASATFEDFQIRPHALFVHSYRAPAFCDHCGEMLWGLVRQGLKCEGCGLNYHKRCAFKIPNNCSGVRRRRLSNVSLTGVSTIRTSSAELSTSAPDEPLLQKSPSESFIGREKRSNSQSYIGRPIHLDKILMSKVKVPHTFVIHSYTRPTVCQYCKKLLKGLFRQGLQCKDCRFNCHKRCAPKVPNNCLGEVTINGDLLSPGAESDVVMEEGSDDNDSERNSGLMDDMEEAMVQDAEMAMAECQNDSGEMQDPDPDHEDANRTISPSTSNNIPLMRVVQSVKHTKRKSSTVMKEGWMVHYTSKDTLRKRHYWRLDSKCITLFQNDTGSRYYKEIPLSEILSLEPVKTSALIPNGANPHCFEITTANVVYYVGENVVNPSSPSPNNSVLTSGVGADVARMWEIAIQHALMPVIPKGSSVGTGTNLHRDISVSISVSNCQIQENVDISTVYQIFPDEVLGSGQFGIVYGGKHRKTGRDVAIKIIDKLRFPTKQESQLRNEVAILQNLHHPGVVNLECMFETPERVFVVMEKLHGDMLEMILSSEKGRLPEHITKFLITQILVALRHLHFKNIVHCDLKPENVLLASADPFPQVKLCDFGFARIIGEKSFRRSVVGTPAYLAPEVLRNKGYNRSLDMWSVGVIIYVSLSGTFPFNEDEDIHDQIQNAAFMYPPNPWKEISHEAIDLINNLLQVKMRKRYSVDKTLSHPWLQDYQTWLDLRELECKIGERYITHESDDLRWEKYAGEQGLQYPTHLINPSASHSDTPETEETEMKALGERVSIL
In short: as §1

[4] = biological target: T4, kinases of the scanMAX Kinase assay panel (Homo sapiens, UniProt P00533, DEL746-750); settings: EGFR(E746-A750de1); 1 uM
T4 construct: purchased DiscoverX Co. (contract measurement) scanMAX Kinase assay panel
In short: as §1

[5] = biological target: T5, kinases of the scanMAX Kinase assay panel (Homo sapiens, UniProt P36894); settings: BMPR1A; 1 uM
T5 construct: purchased DiscoverX Co. (contract measurement) scanMAX Kinase assay panel
In short: as §1

[6] = biological target: T6, kinases of the scanMAX Kinase assay panel (Homo sapiens, UniProt Q9Y5S2); settings: MRCKB; 1 uM
T6 construct: purchased DiscoverX Co. (contract measurement) scanMAX Kinase assay panel
In short: as §1

[7] = biological target: T7, kinases of the scanMAX Kinase assay panel (Homo sapiens, UniProt P30291); settings: kinase WEE1; 1 uM in DMSO
T7 construct: purchased DiscoverX Co. (contract measurement) scanMAX Kinase assay panel
In short: as §1

[8] = biological target: T8, kinases of the scanMAX Kinase assay panel (Homo sapiens, UniProt P10721); settings: 1 uM
T8 construct: purchased DiscoverX Co. (contract measurement) scanMAX Kinase assay panel
In short: as §1

[9] = biological target: T9, kinases of the scanMAX Kinase assay panel (Homo sapiens, UniProt P42338); settings: PIK3CB; 1 uM
T9 construct: purchased DiscoverX Co. (contract measurement) scanMAX Kinase assay panel
In short: as §1

[10] = biological target: T10, kinases of the scanMAX Kinase assay panel (Homo sapiens, UniProt Q02763); settings: kinase TIE2; 1 uM in DMSO
T10 construct: purchased DiscoverX Co. (contract measurement) scanMAX Kinase assay panel
In short: as §1

T4 sequence (P00533 with tags, fused parts or gaps DEL746-750): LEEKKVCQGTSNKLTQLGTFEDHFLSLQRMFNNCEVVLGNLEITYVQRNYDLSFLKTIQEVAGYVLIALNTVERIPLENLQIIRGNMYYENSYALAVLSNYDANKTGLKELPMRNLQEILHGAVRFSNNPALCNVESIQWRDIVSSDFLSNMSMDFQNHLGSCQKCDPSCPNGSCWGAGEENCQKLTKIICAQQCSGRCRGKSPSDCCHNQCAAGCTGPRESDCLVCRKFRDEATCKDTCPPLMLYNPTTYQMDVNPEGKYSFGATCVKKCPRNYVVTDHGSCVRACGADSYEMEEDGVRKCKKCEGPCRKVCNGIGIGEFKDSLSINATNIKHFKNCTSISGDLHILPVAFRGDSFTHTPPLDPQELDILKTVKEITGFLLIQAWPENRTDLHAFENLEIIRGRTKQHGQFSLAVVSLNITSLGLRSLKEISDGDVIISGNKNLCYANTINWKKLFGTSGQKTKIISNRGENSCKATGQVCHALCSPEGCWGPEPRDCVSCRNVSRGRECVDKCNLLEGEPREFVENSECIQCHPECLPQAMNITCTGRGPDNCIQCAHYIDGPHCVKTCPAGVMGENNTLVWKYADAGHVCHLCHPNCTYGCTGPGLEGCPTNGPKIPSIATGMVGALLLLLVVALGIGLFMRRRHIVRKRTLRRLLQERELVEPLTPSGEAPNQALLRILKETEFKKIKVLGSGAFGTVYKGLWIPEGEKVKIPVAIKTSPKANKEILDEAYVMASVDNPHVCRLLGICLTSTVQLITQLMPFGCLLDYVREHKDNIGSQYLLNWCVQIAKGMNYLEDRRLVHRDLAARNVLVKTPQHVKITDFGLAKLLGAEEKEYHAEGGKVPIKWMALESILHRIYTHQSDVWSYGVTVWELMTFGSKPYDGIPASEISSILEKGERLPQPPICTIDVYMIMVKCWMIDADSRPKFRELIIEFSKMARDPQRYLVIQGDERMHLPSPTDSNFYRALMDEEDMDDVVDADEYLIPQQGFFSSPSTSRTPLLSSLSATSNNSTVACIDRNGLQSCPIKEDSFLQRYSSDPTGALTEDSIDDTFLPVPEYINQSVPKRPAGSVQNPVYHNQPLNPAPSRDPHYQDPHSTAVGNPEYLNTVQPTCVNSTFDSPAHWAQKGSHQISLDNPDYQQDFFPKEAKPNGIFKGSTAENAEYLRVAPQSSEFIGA
T5 sequence (P36894 24-532): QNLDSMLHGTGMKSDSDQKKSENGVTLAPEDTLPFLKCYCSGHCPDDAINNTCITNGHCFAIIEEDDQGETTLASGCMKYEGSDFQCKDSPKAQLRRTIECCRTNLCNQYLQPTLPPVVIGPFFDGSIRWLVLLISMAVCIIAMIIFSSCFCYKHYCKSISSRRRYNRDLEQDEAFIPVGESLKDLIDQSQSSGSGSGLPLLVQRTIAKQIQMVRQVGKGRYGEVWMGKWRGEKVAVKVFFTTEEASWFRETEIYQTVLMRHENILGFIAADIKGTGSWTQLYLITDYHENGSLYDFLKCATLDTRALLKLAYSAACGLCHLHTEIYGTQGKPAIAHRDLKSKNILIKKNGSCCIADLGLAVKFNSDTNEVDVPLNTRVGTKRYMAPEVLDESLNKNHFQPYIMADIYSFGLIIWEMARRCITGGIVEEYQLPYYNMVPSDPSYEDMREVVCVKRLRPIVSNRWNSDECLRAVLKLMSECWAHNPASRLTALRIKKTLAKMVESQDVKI
T7 sequence (P30291 whole entry): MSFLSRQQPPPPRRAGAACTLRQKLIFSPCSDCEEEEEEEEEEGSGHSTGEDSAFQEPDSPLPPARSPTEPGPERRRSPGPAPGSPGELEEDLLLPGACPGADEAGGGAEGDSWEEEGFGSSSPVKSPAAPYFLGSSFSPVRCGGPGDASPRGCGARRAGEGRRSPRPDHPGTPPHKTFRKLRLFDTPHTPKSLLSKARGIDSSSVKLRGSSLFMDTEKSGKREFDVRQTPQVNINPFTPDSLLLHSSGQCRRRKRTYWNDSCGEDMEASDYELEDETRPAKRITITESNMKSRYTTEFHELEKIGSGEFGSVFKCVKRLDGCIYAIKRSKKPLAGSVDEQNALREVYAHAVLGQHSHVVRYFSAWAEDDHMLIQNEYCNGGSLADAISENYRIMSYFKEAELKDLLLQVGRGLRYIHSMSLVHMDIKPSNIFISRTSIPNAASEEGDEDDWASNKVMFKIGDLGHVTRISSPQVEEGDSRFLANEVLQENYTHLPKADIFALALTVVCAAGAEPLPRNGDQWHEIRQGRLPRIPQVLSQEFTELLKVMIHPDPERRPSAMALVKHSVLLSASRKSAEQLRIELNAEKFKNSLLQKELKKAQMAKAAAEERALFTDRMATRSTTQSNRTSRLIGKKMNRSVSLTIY
T10 sequence (Q02763 23-1124): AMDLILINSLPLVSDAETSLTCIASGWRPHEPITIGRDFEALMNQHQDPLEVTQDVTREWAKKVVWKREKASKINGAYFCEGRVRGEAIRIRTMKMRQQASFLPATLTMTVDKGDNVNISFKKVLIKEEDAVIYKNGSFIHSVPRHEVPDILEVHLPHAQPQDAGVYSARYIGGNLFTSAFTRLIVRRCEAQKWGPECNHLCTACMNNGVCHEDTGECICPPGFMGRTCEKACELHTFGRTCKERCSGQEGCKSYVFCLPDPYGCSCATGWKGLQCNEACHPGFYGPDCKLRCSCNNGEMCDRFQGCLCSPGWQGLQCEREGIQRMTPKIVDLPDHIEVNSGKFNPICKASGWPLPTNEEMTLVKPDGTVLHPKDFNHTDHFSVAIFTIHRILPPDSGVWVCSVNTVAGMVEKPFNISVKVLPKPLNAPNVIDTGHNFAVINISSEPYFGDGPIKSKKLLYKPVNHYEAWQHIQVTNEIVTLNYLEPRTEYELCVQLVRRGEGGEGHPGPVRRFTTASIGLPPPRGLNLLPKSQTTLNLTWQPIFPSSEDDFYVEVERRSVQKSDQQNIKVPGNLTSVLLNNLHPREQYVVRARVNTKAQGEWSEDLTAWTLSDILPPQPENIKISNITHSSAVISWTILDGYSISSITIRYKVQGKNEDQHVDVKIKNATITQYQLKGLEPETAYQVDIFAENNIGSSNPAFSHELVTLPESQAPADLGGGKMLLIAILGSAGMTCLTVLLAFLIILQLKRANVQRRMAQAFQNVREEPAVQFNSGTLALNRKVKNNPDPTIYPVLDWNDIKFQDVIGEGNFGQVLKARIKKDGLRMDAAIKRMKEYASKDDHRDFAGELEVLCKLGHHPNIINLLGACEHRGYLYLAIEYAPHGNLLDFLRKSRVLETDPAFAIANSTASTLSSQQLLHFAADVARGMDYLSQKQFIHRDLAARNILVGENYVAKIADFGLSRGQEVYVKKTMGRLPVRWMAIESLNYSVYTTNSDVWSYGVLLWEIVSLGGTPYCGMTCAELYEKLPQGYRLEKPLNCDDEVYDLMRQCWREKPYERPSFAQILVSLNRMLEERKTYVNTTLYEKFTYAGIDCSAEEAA
T8 sequence (P10721 26-976): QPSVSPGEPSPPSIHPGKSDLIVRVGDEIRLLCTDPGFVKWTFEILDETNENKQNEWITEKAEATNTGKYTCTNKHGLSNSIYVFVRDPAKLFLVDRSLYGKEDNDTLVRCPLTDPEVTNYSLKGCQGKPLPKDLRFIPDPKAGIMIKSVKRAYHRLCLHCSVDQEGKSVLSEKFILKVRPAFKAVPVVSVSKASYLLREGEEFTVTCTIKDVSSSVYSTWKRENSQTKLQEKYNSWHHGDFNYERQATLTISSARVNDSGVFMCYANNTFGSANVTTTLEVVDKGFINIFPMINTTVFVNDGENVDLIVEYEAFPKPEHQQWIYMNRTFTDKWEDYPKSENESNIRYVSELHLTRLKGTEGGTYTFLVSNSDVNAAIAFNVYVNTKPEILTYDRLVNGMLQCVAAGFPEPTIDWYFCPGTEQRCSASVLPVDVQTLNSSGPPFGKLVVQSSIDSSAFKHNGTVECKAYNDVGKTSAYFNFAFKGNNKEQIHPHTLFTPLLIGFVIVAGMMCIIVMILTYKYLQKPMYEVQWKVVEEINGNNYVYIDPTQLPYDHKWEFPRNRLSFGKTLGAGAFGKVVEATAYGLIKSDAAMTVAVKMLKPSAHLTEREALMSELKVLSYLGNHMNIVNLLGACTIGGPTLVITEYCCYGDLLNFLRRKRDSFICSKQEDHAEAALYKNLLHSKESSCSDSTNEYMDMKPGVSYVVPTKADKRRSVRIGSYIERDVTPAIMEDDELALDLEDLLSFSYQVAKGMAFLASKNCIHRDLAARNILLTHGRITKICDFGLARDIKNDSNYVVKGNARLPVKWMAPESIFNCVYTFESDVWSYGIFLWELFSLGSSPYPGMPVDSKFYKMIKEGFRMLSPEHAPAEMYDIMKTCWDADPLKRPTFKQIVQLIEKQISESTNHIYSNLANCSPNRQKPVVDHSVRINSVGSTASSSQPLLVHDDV
T1 sequence (Q96RR4 whole entry): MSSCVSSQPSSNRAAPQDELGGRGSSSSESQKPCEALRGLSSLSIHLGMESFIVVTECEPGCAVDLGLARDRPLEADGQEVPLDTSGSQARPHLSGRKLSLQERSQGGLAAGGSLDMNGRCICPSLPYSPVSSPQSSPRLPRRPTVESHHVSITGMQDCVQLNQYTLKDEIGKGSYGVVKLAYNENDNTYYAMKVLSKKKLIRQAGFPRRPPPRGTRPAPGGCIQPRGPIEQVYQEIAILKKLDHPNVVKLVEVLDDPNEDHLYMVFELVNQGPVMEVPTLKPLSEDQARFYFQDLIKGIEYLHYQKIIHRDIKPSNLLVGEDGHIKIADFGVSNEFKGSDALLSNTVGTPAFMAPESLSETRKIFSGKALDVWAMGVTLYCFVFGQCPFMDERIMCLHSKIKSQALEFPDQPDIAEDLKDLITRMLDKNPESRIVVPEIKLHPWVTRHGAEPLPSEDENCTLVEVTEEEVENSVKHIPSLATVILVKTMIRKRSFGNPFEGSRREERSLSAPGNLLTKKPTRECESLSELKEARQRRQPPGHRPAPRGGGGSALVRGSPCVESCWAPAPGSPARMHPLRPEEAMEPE

SMILES | remaining binding at 1 µM [1] | remaining binding at 1 µM [2] | remaining binding at 1 µM [3] | remaining binding at 1 µM [4] | remaining binding at 1 µM [5] | remaining binding at 1 µM [6] | remaining binding at 1 µM [7] | remaining binding at 1 µM ([8]; KIT-autoinhibited) | remaining binding at 1 µM ([8]; KIT) | remaining binding at 1 µM [9] | remaining binding at 1 µM [10]
CC1(Nc2nc(Nc3cnn([C@H]4CCN(C5COC5)C[C@@H]4F)c3Cl)nc3[nH]cc(C#N)c23)CC1 [Example 52, 2-((5-chloro-1-((3S,4S)-3-fluoro-1-(oxetane-3-yl)piperidine-4-yl)-1H-pyrazole-4-yl)amino)((1-methylcyclopropyl)amino)-7H-pyrrolo[2,3-d]pyrimidine-5-carbonitrile] | 5.7% | 73% | 12% | 59% | 100% | 89% | 100% | 0.1% | 0.15% | 100% | 46%
CNc1nc(Nc2ccc(C(=O)N3CCOCC3)cc2OC)nc2[nH]cc(C#N)c12 [Example 1, 2-((2-methoxy-4-(morpholine-4-carbonyl)phenyl)amino)-4-(methylamino)-7H-pyrrolo[2,3-d]pyrimidine-5-carbonitrile] | 65% | 100% | 5.7% | 97% | 94% | 100% | 78% | 59% | 48% | 96% | 92%
CCNc1nc(Nc2ccc(C(=O)N3CCC(N4CCOCC4)CC3)cc2OC)nc2[nH]cc(C(F)(F)F)c12 [Example 104, (4-((4-(ethylamino)-5-(trifluoromethyl)-7H-pyrrolo[2,3-d]pyrimidine-2-yl)amino)-3-methoxyphenyl)(4-morpholinopiperidine-1-yl)methanone] | 20% | 99% | 11% | 100% | 100% | 100% | 100% | 74% | 56% | 92% | 100%
